The values below come from patent US20070270393A1, “Methods and compositions for modulation of sleep cycle” (priority 2006, published 2007).

The target of assay [1] is T1, glucocorticoid (GR) receptors (Homo sapiens, UniProt P04150).
T1 sequence (P04150 1-777): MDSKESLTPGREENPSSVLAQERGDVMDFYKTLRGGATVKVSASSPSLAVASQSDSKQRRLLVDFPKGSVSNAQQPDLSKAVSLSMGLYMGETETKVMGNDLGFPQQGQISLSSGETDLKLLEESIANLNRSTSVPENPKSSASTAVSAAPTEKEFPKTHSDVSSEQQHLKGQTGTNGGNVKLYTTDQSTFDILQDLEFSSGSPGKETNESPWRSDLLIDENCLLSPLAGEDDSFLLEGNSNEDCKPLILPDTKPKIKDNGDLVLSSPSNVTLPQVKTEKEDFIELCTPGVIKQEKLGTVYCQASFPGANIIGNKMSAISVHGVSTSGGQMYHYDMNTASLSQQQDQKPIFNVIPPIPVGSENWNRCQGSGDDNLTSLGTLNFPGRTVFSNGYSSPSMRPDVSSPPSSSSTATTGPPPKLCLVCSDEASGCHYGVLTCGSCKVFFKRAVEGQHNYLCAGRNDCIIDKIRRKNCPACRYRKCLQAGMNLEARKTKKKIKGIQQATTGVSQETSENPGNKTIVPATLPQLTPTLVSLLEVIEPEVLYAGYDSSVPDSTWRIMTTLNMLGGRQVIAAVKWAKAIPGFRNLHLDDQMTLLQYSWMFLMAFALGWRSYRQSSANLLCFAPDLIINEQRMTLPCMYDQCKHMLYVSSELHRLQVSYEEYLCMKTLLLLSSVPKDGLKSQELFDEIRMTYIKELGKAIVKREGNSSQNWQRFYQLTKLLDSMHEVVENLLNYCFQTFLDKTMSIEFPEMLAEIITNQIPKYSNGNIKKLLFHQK
The note with it: literature; cited from earlier work.

In assay [2] the test system is nocturnal HPA axis activity in healthy controls. The experiment in a line: Two day repeated measures study of fludrocortisone's acute effects on nocturnal HPA axis activity. The format is in vivo, human. How it is done:
Nine healthy subjects were recruited from the community via flyers and internet postings. Subjects responding to ads were phone screened to determine if subjects met initial eligibility criteria. Those subjects meeting criteria underwent physical examination, screening labs (complete blood count, comprehensive metabolic panel, urine analysis, urine toxicology screen, TSH, FT4, serum pregnancy test) and EKG. A SCID was performed to rule out Axis I and Axis II DSM-TR pathology. At the time of this analysis and manuscript preparation, 9 subjects have been enrolled. Inclusion criteria were: (1) participants are age 18 to 85 years old with a HAM-D score less than or equal to 5. Exclusion criteria were: (1) personal history of Axis I or Axis II disorders; (2) active medical problems; (3) abuse of drugs or alcohol in the 6 months prior to study; (4) use of additional prescription medications, street drugs or alcohol during the week before the study; (5) currently pregnant or lactating.
This study is a two day repeated measures study of fludrocortisone's acute effects on nocturnal HPA axis activity in healthy controls. Blood samples were taken every 30 minutes, beginning at 1600 to 2400 on Days 1. At 1400 on Day 2, all subjects were given 0.5 mg of fludrocortisone. Blood was then resampled from 1600 to 2400 on Day 2 to assess nocturnal changes in HPA axis activity. Blood sampling was timed in the first half of the night to coincide with the time period of greatest activity of MR.
Group averages, standard deviation and effect sizes are reported. The primary end-points were chosen to be mean cortisol and ACTH from 1600 to 2400 when greatest mineralocorticoid receptor activity is expected. To determine the differential effects of fludrocortisone, data from all subjects are pooled and the average values from 1600 to 2400 are computed. Next, mean values across this time interval are computed before (Time 1) and after (Time 2) fludrocortisone and the effect size for the difference between pooled mean values is computed.

The next assay deals with MR and GR. The settings on record: Reul and de Kloet 1985; cited from earlier work.
[3] abbreviates: 0.5 mg fludrocortisone, treatment vs baseline.

Structures are written as SMILES. Values joined by “and” are separate entries in the source; they are usually repeats but may differ in a detail not shown here. Equal entries are not always repeated.

Consider `CC#C[C@]1(O)CC[C@H]2[C@@H]3CCC4=CC(=O)CCC4=C3[C@@H](c3ccc(OCCN(C)C)cc3)C[C@@]21C` [RU009, 11-beta-(4-dimethyl-aminoethoxyphenyl)-17-alpha-(propynyl-17beta-hydroxy-4,9-estradien-3-one)], for which, in assay [1], the “antagonist of glucocorticoid (GR) receptors” value is “GR antagonist effects”.
On to `C[C@]12CCC(=O)C=C1CC[C@H]1[C@@H]3CC[C@](O)(C(=O)CO)[C@@]3(C)C[C@H](O)[C@@]12F` [fludrocortisone], for which the “Mean ACTH (1600 to 2400), Difference (Tx − Baseline)” value in assay [2] (0.5 mg fludrocortisone at 1400 on Day 2) came to 5.76 pg/mL. Besides, the “Mean Cortisol (1600 to 2400), Difference (Tx − Baseline)” value in assay [2] (0.5 mg fludrocortisone at 1400 on Day 2, 9 healthy subjects) worked out at 2.19 µg/dL. The “Mean Cortisol/ACTH (1600 to 2400), Difference (Tx − Baseline)” value in assay [2] (0.5 mg fludrocortisone, post-hoc analysis) is 0.0686 and 0.07. In addition, in assay [2] (setting [3]), the “Mean ACTH (1600 to 2400), Effect Size” value is listed as 4.46; the “Mean Cortisol (1600 to 2400), Effect Size” value amounted to 1.65; the “Mean Cortisol/ACTH (1600 to 2400), Effect Size” value turned out to be 0.92. Further, in assay [2] (after 0.5 mg fludrocortisone), the “Mean ACTH (1600 to 2400), AUC Treatment” value amounted to 13.2 pm/ml and the “Mean Cortisol (1600 to 2400), AUC Treatment” value was found to be 1.77 µg/dL.
With `C[C@]12CCC(=O)C=C1CC[C@@H]1[C@@H]2[C@@H](O)C[C@@]2(C)[C@H]1CC[C@]2(O)C(=O)CO` [cortisol], in the assay with MR and GR, the “affinity for MR relative to GR” value is recorded as “greater affinity for MR than GR”.
